Assay: Release of the active agent in a paddle agitator model according to USP
Assay type: physicochemical
Conditions: total dose of 25 mg; pure caffeine, not retarded, filled in a capsule; FIG. 3
Text: In this context it is once again pointed out that the degree of destructurization into the glass state is decisive for the kinetics of the release of the active agents. […] For comparative purposes, the release of pure caffeine, not retarded and filled in a capsule has been drawn in.

Q: Which “Time of release for the total dose” value does the source give for Cn1c(=O)c2c(ncn2C)n(C)c1=O [caffeine] here?
A: The value was “about 15 minutes”.
